Entries after “also recorded” stand apart in the source; their conditions may differ.
Assays:
CD (Sprague Dawley) rats = assay: Rat functional observation battery (FOB) neurobehavioral evaluation after cumulative SC dosing; assay type: in vivo
Description: The observations were assessed through a rat functional observation battery (FOB) and continuous physiological measurements on the day of cumulative dosing, which are provided in further detail below.
Methods. A total of 42 adult male CD® (Sprague Dawley) rats (Charles River Laboratories) were surgically implanted with DSI radiotelemetry devices by personnel at Charles River Laboratories Raleigh, NC, per their test site SOPs. Telemetry devices supported continuous recording of temperature, activity, blood pressure and heart rate. Telemeterized rats were shipped to the Charles River Laboratories testing facility (Mattawan, MI) and acclimated to the environment for at least 1 week prior to experimentation. Animals were pair-housed in solid bottom cages with nonaromatic bedding. On the dosing day, animals were singly housed and then returned to the paired cohort following the dosing/telemetry recording phase. Diet (Lab Diet® Certified Rodent Diet #5CR4) and tap water via an automatic water system were available ad libitum, except during designated procedures. Temperature and humidity were maintained according to the Testing Facility SOP. Animals were randomized into treatment groups using a standard, by weight, measured value randomization procedure. Body weight was determined for each rat prior to dosing.
As illustrated in the Table, a total of 36 rats were included in the study. The vehicle and 2 test article doses were administered in a volume of 1 mL/kg to each of 3 groups of n=12 telemeterized rats via subcutaneous injection four times on a given day, followed by neurobehavioral evaluations. This series was repeated 3 times on study. Each group received all 3 dose levels of the applicable test or control article in ascending order with a 1-week washout between dose levels.
Mortality/cage side clinical observations were conducted for all study animals at least twice daily beginning upon receipt through termination, except on days of receipt and termination where frequency was at least once daily. Detailed clinical observations were conducted for all study animals prior to each of the four cumulative doses in a series. Individual body weights were conducted for all study animals at transfer, prior to randomization, on the day of dosing on each of the 3 cycles of dosing. The body weights recorded at transfer and prior to randomization are not reported but are maintained in the study file. Veterinary care was available throughout the course of the study, and animals were examined by the veterinary staff as needed based on clinical signs or other changes. All animals were provided with HydroGel the night prior to their respective dosing days to potentially mitigate any animal welfare issues related to fluid loss/dehydration.
Neurobehavioral evaluations (blinded) were conducted for all study animals 1 hour following the last (4th) cumulative dose of the series. The neurobehavioral parameters evaluated included: activity measurements (arousal/alertness, posture/body carriage, stereotypy, rearing, and appearance), autonomic measurements (exophthalmus, lacrimation, erected fur, pupil response, salivation, defecation, and palpebral closure/ptosis), excitability measurements (vocalizations, startle response, ease of removal, handling reactivity, and convulsions), neuromuscular measurements (gait/mobility, grip strength/response, air righting reflex, tremor, and body tone), physiological measurements (respiration and body temperature), and sensorimotor measurements (touch response/tactile reflex and thermal response).

C57BL/6J mice = assay: Head twitch response (HTR); assay type: in vivo, mouse; conditions: 3 mg/kg IP, 30 minutes after injection; listed as R,S-MDMA
Description: Male C57BL/6J mice at 6-8 weeks of age were purchased from Jackson Laboratories and housed four per cage in a climate and humidity-controlled room in a vivarium at the University of California, San Diego. The room operated on a reverse light cycle (lights on at 1900 h, off at 0700 h) with food and water available ad libitum, except during testing. All testing was performed during 1000 h and 1800 h. After a minimum of 1 week acclimation to the housing facility, mice were anesthetized using a mixture of ketamine (100 mg/kg IP) and xylazine (10 mg/kg IP). Under deep anesthesia, an incision was made in the scalp and a small neodymium magnet (4.57 mm×4.57 mm×2.03 mm) was attached to the cranium using cyanoacrylate and dental cement. After at least a 2-week recovery period, the mouse was removed from the home cage and injected intraperitoneally with the test article or vehicle (0.9% sterile saline). Immediately, the mouse was placed in a glass cylinder surrounded by a magnetometer coil and the head twitch response (HTR) was assessed for 30 minutes (Halberstadt and Geyer, 2013). The output of the coil was recorded using a Powerlab/8SP with LabChart v.7.3.2 (ADInstruments). Coil voltage was amplified, low-pass filtered (2-10 kHz cut-off frequency) to remove interference, digitized and sampled at 20 kHz. Head twitches were identified using a validated technique based on artificial intelligence (Halberstadt, 2020). Events in the recordings were transformed into a visual representation in the time-frequency domain and deep features were extracted using the pretrained convolutional neural network ResNet-50, and the images were subsequently classified using a Support Vector Machine algorithm.
Test articles (R,S-MDA, R(−)-MDA, S-(+)MDA), R,S-MDMA, R(−)-MDMA and S(+)-MDMA) were supplied by the NIDA Drug Supply Program as neat powders. Racemic MDA and MDMA and their enantiomers were dissolved in saline and injected IP at a volume of 5 mL/kg. Each dose was calculated based on the salt form of the compounds. For each treatment condition, six groups of mice (n=5-6/group) were treated with vehicle or the test drug (0.1, 0.3, 1, 3, or 10 mg/kg) and HTR assessed for 30 minutes immediately following injections. To avoid carryover effects, each treatment condition was performed at least seven days apart. Total number of mice used for the experiment was 63.

[1] = 1 h after last of 4 hourly SC injections, R-MDMA and racemic MDMA 10, 20 mg/kg/day, S-MDMA 5, 10 mg/kg/day
[2] = 1 h after last of 4 hourly SC injections, racemic MDMA 10, 20 mg/kg/day, S-MDMA 5, 10 mg/kg/day
[3] = FOB, cumulative SC dosing, dose groups stated in the value, listed as Rac-MDMA
[4] = FOB, cumulative SC dosing, dose groups stated in the value, listed as Rac.-MDMA

CNC(C)Cc1ccc2c(c1)OCO2 (racemic) [Racemic MDMA, 3,4-methylenedioxymethamphetamine]
arousal/alertness and rearing (CD (Sprague Dawley) rats; [1]): general increase in overall levels of arousal/alertness and rearing | ease of removal from the home cage and handling reactivity (excitability) (CD (Sprague Dawley) rats; [1]): Dose-dependent increased difficulty in removal from the home cage and increased handling reactivity | forelimb grip strength (CD (Sprague Dawley) rats; [1]): dose-dependent statistically significant decreases in forelimb grip strength | salivation and erected fur (autonomic) (CD (Sprague Dawley) rats; [1]): Dose-dependent increased salivation and erected fur | unkempt appearance (CD (Sprague Dawley) rats; [1]): increased incidence of unkempt appearance in a dose-dependent manner | general gait/mobility changes (CD (Sprague Dawley) rats; [2]): General gait/mobility changes were only observed | respiration (CD (Sprague Dawley) rats; [2]): Rapid respiration was noted | Rank Order Activity Measurement Effects (CD (Sprague Dawley) rats; [3]): Rac-MDMA (0 mg/kg/day) < Rac-MDMA (20 mg/kg/day) < Rac-MDMA (10 mg/kg/day); also recorded: S-MDMA (10 mg/kg/day) = R-MDMA (10 mg/kg/day) = Rac-MDMA (10 mg/kg/day) | Rank Order Autonomic Measurement Effects (CD (Sprague Dawley) rats; [3]): R-MDMA (20 mg/kg/day) < S-MDMA (10 mg/kg/day) < Rac-MDMA (20 mg/kg/day); also recorded: Rac-MDMA (0 mg/kg/day) < Rac-MDMA (10 mg/kg/day) < Rac-MDMA (20 mg/kg/day); also recorded: R-MDMA (10 mg/kg/day) < S-MDMA (10 mg/kg/day) = Rac-MDMA (20 mg/kg/day) | Rank Order Excitability Measurement Effects (CD (Sprague Dawley) rats; [3]): S-MDMA (5 mg/kg/day) < Rac-MDMA (10 mg/kg/day); also recorded: R-MDMA (20 mg/kg/day) = S-MDMA (10 mg/kg/day) < Rac-MDMA (20 mg/kg/day); also recorded: Rac-MDMA (0 mg/kg/day) < Rac-MDMA (10 mg/kg/day) < Rac-MDMA (20 mg/kg/day); also recorded: R-MDMA (10 mg/kg/day) < S-MDMA (10 mg/kg/day) < Rac-MDMA (20 mg/kg/day) | Rank Order Neuromuscular Measurement Effects (CD (Sprague Dawley) rats; [3]): R-MDMA (20 mg/kg/day) = S-MDMA (10 mg/kg/day) < Rac-MDMA (20 mg/kg/day); also recorded: Rac-MDMA (0 mg/kg/day) < Rac-MDMA (10 mg/kg/day) < Rac-MDMA (20 mg/kg/day); also recorded: R-MDMA (10 mg/kg/day) < S-MDMA (10 mg/kg/day) < Rac-MDMA (20 mg/kg/day) | Rank Order Physiological Measurement Effects (CD (Sprague Dawley) rats; [3]): R-MDMA (20 mg/kg/day) < S-MDMA (10 mg/kg/day) = Rac-MDMA (20 mg/kg/day); also recorded: Rac-MDMA (0 mg/kg/day) < Rac-MDMA (10 mg/kg/day) < Rac-MDMA (20 mg/kg/day); also recorded: R-MDMA (10 mg/kg/day) < S-MDMA (10 mg/kg/day) = Rac-MDMA (20 mg/kg/day) | Rank Order Sensorimotor Measurement Effects (CD (Sprague Dawley) rats; [3]): S-MDMA (5 mg/kg/day) < Rac-MDMA (10 mg/kg/day) < R-MDMA (10 mg/kg/day); also recorded: S-MDMA (10 mg/kg/day) < Rac-MDMA (20 mg/kg/day) < R-MDMA (20 mg/kg/day); also recorded: Rac-MDMA (0 mg/kg/day) < Rac-MDMA (10 mg/kg/day) < Rac-MDMA (20 mg/kg/day) | Rank Order Activity Measurement Effects (CD (Sprague Dawley) rats; [4]): S-MDMA (5 mg/kg/day) < R-MDMA (10 mg/kg/day) < Rac.-MDMA (10 mg/kg/day); also recorded: Rac.-MDMA (20 mg/kg/day) < S-MDMA (10 mg/kg/day) < R-MDMA (20 mg/kg/day); also recorded: Rac.-MDMA (20 mg/kg/day) < S-MDMA (10 mg/kg/day) < R-MDMA (10 mg/kg/day) | Rank Order Autonomic Measurement Effects (CD (Sprague Dawley) rats; [4]): R-MDMA (10 mg/kg/day) < S-MDMA (5 mg/kg/day) < Rac.-MDMA (10 mg/kg/day) | Rank Order Excitability Measurement Effects (CD (Sprague Dawley) rats; [4]): R-MDMA (10 mg/kg/day) < S-MDMA (5 mg/kg/day) < Rac.-MDMA (10 mg/kg/day) | Rank Order Neuromuscular Measurement Effects (CD (Sprague Dawley) rats; [4]): R-MDMA (10 mg/kg/day) < S-MDMA (5 mg/kg/day) < Rac.-MDMA (10 mg/kg/day) | Rank Order Physiological Measurement Effects (CD (Sprague Dawley) rats; [4]): R-MDMA (10 mg/kg/day) < S-MDMA (5 mg/kg/day) < Rac.-MDMA (10 mg/kg/day) | thermal response times (CD (Sprague Dawley) rats; at levels at least two-fold that of vehicle-treated groups, 1 h after last of 4 hourly SC injections): Statistically significant increases in thermal response times | neuromuscular observations (CD (Sprague Dawley) rats; primarily noted at 20 mg/kg/day racemic-MDMA (4 hourly SC injections)): observations of ataxia, hunched posture, and tip-toe walking | head twitch response (HTR) compared to control (vehicle) (C57BL/6J mice): decrease in HTR

Reference: US20240082212A1, “USE OF MDMA FOR TREATMENT OF STRESS-RELATED DISORDERS” (priority 2022, published 2024)
